Values after ≈ are worked out from the molar mass of the structure shown. Where two headings read alike, the source gives them in different places. Starred links: 1 amine or outer side, 2 acyl side, 3 side chain; linkers in the order of their positions; H or OH if unused. Positions of bridges follow the written chain, without caps; N, C: chain ends. Residues, ends and D or L forms follow the SMILES beside them. *: point of attachment. C20 diacid = O=C(O)CCCCCCCCCCCCCCCCCCC(=O)*; γGlu = O=C(O)[C@H](CCC(=O)[*:2])N[*:1]
What was measured:
[1] = biological target: T1, human amylin receptor (amylin 3(a) receptor: human calcitonin receptor + RAMP-3) (Homo sapiens, UniProt O60896+P30988); assay: Assay (II)a functional CRE-luciferase assay, human amylin receptor; format: cell-based; details: Table 2; BHK amylin 3(a)-receptor/CRE-luc cells
T1 construct: expressed in transfected cells; host or cells: BHK570
T1 sequence (P30988 25-474): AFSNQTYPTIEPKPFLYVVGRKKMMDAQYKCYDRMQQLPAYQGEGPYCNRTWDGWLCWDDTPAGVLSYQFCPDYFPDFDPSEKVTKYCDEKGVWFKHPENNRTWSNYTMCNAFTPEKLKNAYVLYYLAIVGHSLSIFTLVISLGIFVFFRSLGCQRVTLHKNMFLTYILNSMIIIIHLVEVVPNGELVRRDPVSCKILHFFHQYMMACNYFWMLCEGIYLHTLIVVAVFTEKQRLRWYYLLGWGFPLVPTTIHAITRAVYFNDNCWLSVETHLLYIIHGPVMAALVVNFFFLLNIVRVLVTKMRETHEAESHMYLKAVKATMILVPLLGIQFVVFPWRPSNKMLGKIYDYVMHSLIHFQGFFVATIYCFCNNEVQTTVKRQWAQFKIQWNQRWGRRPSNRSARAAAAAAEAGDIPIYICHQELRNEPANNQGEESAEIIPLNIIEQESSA
T1 sequence (O60896 24-148 partner): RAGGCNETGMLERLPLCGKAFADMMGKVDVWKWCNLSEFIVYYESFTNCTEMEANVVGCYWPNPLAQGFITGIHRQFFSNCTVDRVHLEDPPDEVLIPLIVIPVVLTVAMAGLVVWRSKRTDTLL

[2] = biological target: T2, human calcitonin receptor (Homo sapiens, UniProt P30988); assay: Assay (II)a functional CRE-luciferase assay, human calcitonin receptor; format: cell-based; details: Table 7; human calcitonin (CTa) receptor
T2 construct: expressed in transfected cells; host or cells: BHK570
T2 sequence (P30988 25-474): T1 sequence (P30988 25-474)

[3] = biological target: T3, rat amylin 3(a) receptor (rat calcitonin(a) receptor + rat RAMP3) (Rattus norvegicus, UniProt P32214+Q9JJ73); assay: Assay (II)b functional cAMP FlashPlate assay, rat amylin receptor; format: cell-based; details: Table 11
T3 construct: expressed in transfected cells; host or cells: BHK tk'ts 13
T3 sequence (P32214 25-479 isoform P32214-2 limits assumed): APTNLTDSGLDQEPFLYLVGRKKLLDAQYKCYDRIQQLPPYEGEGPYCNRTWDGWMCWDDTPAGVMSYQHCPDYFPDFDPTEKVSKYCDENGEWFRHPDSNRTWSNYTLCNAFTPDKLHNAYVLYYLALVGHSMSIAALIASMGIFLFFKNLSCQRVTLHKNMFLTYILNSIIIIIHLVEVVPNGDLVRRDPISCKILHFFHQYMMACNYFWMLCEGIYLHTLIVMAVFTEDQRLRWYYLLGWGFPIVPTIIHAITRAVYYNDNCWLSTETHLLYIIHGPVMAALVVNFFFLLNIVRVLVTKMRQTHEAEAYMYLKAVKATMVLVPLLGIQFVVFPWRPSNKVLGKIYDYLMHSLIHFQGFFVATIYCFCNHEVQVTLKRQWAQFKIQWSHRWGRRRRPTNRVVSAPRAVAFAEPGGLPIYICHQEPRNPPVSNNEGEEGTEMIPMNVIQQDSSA
T3 sequence (Q9JJ73 23-147 partner): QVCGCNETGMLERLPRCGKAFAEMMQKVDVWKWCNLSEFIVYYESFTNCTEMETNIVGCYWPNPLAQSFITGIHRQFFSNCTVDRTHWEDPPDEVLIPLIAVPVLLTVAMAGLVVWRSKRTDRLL
Summary of the method: (§1)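 BHK tk'ts 13 cells transiently transfected with rat calcitonin(a) receptor, alone or with rat RAMP3 (amylin 3(a)), were stimulated 24 hours later with sample for 30 min in buffer containing IBMX. cAMP measured by competitive radioactive FlashPlate assay, scintillation read after 3 h detection incubation.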

[4] = biological target: T4, rat calcitonin (a) receptor (Rattus norvegicus, UniProt P32214); assay: Assay (II)b functional cAMP FlashPlate assay, rat calcitonin receptor; format: cell-based; details: Table 11; read-out: CTa receptor rat EC50
T4 construct: expressed in transfected cells; host or cells: BHK tk'ts 13
T4 sequence (P32214 25-479 isoform P32214-2 limits assumed): T3 sequence (P32214 25-479 isoform P32214-2 limits assumed)
Summary of the method: as §1

[5] = Assay (IV) determination of solubility; format: physicochemical
Summary of the method: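 Polypeptide in water (~500 nmol/ml stock) was mixed 1:1 with 100 mM buffers from pH 3.0 to 8.0 (glycylglycine pH 3.0–5.0; bistrispropane pH 6.0–8.0). After 18 hours at room temperature, samples were centrifuged and the polypeptide remaining in solution was quantified by HPLC.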

[6] = Assay (IX) pK, determination of T½ in mini-pig; format: in vivo, Göttingen mini-pigs; details: male, Göttingen, iv, 2 nmol/kg; minipig; plasma terminal half-life
amylin receptor = biological target: T5, amylin receptor (Homo sapiens, UniProt P30988); details: amylin receptor vs calcitonin receptor, cited from earlier work
T5 sequence (P30988 25-474): T1 sequence (P30988 25-474)

[7] = cited from earlier work
[8] = bistrispropane buffer, pH 6, pH 6.0, read-out: Solubility pH 6.0
[9] = bistrispropane buffer, pH 6.5, pH 6.5, read-out: Solubility pH 6.5
[10] = bistrispropane buffer, pH 7, pH 7.0, 18 hours at room temperature, Table 3, read-out: Solubility pH 7.0
[11] = bistrispropane buffer, pH 7, pH 7.0, read-out: Solubility pH 7.0
[12] = bistrispropane buffer, pH 7.5, pH 7.5, read-out: Solubility pH 7.5
[13] = glycylglycine buffer, pH 3, pH 3.0, read-out: Solubility pH 3.0
[14] = glycylglycine buffer, pH 4, pH 4.0, 18 hours at room temperature, Table 2, read-out: Solubility pH 4.0
[15] = glycylglycine buffer, pH 4, pH 4.0, read-out: Solubility pH 4.0
[16] = glycylglycine buffer, pH 5, pH 5.0, read-out: Solubility pH 5.0

| Compound | EC50 [1] [pM] | EC50 [2] [pM] | EC50 [3] [pM] | EC50 [4] [pM] | solubility at 18 h [5, 8] [µM] | solubility at 18 h [5, 9] [µM] | solubility at 18 h [5, 10] [µM] | solubility at 18 h [5, 11] [µM] | solubility at 18 h [5, 12] [µM] | solubility at 18 h [5, 13] [µM] | solubility at 18 h [5, 14] [µM] | solubility at 18 h [5, 15] [µM] | solubility at 18 h [5, 16] [µM] | half-life [6] [h] | also measured |
| --- | --- | --- | --- | --- | --- | --- | --- | --- | --- | --- | --- | --- | --- | --- | --- |
| CC[C@H](C)[C@H](NC(=O)[C@@H]1CCCN1C(=O)CNC(=O)[C@H](Cc1ccccc1)NC(=O)[C@H](CC(N)=O)NC(=O)[C@H](CC(N)=O)NC(=O)[C@H](CO)NC(=O)[C@H](CO)NC(=O)[C@H](Cc1c[nH]cn1)NC(=O)[C@H](Cc1cnc[nH]1)NC(=O)[C@H](CC(C)C)NC(=O)[C@H](Cc1ccccc1)NC(=O)[C@H](CCC(=O)O)NC(=O)[C@H](C)NC(=O)[C@H](CC(C)C)NC(=O)[C@H](CCCNC(=N)N)NC(=O)[C@H](CCC(N)=O)NC(=O)[C@@H](NC(=O)[C@H](C)NC(=O)[C@@H]1CSSC[C@H](NC(=O)[C@H](CCCCN)NC(=O)CC[C@H](NC(=O)CCCCCCCCCCCCCCCCCCC(=O)O)C(=O)O)C(=O)N[C@@H](CC(N)=O)C(=O)N[C@@H]([C@@H](C)O)C(=O)N[C@@H](C)C(=O)N[C@@H]([C@@H](C)O)C(=O)N1)[C@@H](C)O)C(=O)N[C@@H](CC(C)C)C(=O)N1CCC[C@H]1C(=O)N1CCC[C@H]1C(=O)N[C@H](C(=O)N[C@@H](CC(N)=O)C(=O)N[C@H](C(=O)NCC(=O)N[C@@H](CO)C(=O)N[C@@H](Cc1cnc[nH]1)C(=O)N[C@H](C(=O)N[C@@H](Cc1ccc(O)cc1)C(N)=O)[C@@H](C)O)C(C)C)[C@@H](C)O [Example 55, N-alpha-[(S)-4-Carboxy-4-(19-carboxynonadecanoylamino)butyryl]-[Glu14,His17,His35]-pramlintide] ({C20 diacid-γGlu}-KCNTATCATQRLAEFLHHSSNNFGPILPPTNVGSHTY-NH2; disulfide 2-7) | 152 | 163 | 262 | 673 | > 200 | 146 (≈ 654 µg/mL) | 102 (≈ 459 µg/mL) | 102 (≈ 459 µg/mL) | 108 (≈ 486 µg/mL) | > 200 | > 200 | > 200 | > 200 | 73 | solubility at 18 h ([5]; bistrispropane buffer, pH 8, pH 8.0, read-out: Solubility pH 8.0): 146 µM (≈ 654 µg/mL) |
| CC[C@H](C)[C@H](NC(=O)[C@@H]1CCCN1C(=O)CNC(=O)[C@H](Cc1ccccc1)NC(=O)[C@H](CC(N)=O)NC(=O)[C@H](CC(N)=O)NC(=O)[C@H](CO)NC(=O)[C@H](CO)NC(=O)[C@H](Cc1c[nH]cn1)NC(=O)[C@H](CCCNC(=N)N)NC(=O)[C@H](CC(C)C)NC(=O)[C@H](Cc1ccccc1)NC(=O)[C@H](CCC(=O)O)NC(=O)[C@H](C)NC(=O)[C@H](CC(C)C)NC(=O)[C@H](CCCNC(=N)N)NC(=O)[C@H](CCC(N)=O)NC(=O)[C@@H](NC(=O)[C@H](C)NC(=O)[C@@H]1CSSC[C@H](NC(=O)[C@H](CCCCN)NC(=O)CC[C@H](NC(=O)CCCCCCCCCCCCCCCCCCC(=O)O)C(=O)O)C(=O)N[C@@H](CC(N)=O)C(=O)N[C@@H]([C@@H](C)O)C(=O)N[C@@H](C)C(=O)N[C@@H]([C@@H](C)O)C(=O)N1)[C@@H](C)O)C(=O)N[C@@H](CC(C)C)C(=O)N1CCC[C@H]1C(=O)N1CCC[C@H]1C(=O)N[C@H](C(=O)N[C@@H](CC(N)=O)C(=O)N[C@H](C(=O)NCC(=O)N[C@@H](CO)C(=O)N[C@@H](Cc1cnc[nH]1)C(=O)N[C@H](C(=O)N[C@@H](Cc1ccc(O)cc1)C(N)=O)[C@@H](C)O)C(C)C)[C@@H](C)O [Example 57, N-alpha-[(S)-4-Carboxy-4-(19-carboxynonadecanoylamino)butyryl]-[Glu14,Arg17,His35]-pramlintide] ({C20 diacid-γGlu}-KCNTATCATQRLAEFLRHSSNNFGPILPPTNVGSHTY-NH2; disulfide 2-7) | 111 | 387 | 511 | 2840 | > 200 | > 200 | > 200 | > 200 | 121 (≈ 544 µg/mL) | > 200 | > 200 | > 200 | > 200 | 68 | solubility at 18 h ([5]; bistrispropane buffer, pH 7, pH 7.0, Table 8, read-out: Solubility pH 7.0): > 200 µM; solubility at 18 h ([5]; bistrispropane buffer, pH 7, pH 7.0, Table 9, read-out: Solubility pH 7.0): > 200 µM; solubility at 18 h ([5]; bistrispropane buffer, pH 7.5, pH 7.5, Table 9, read-out: Solubility pH 7.5): 121 µM (≈ 544 µg/mL); solubility at 18 h ([5]; pH 8.0, read-out: Solubility pH 8.0): 80 µM (≈ 360 µg/mL) |
| pramlintide | – | – | – | – | – | – | – | – | – | – | – | – | – | – | potency on the amylin receptor relative to the calcitonin receptor (amylin receptor): 14 times; potency on the amylin receptor relative to the calcitonin receptor (amylin receptor; listed as Pramlintide): approximately 14 times |
| salmon calcitonin | – | – | – | – | – | – | – | – | – | – | – | – | – | – | plasma half-life [7]: about 45 minutes |

— patent US8722849B2, “Polypeptides” (Novo Nordisk A/S, priority 2011, dated 2014)
